Earlier results on two compounds are cited in patent US20130324497A1, “COMPOSITIONS AND METHODS FOR TREATING HEPATITIS B VIRUS INFECTION” (priority 2012, published 2013).

Molecules are shown by their SMILES. Entries after “also recorded” stand apart in the source; their conditions may differ. Like-named read-outs stand apart in the source and are kept apart here.

For one series, the system named is hepatitis B virus. Conditions: for cumulative rate of resistance: 5 years.
For series [1] the following is noted: in vivo.
In series [2] the test system is HBV mutants resistant to lamivudine.

As to `CC(C)(C)C(=O)OCOP(=O)(COCCn1cnc2c(N)ncnc21)OCOC(=O)C(C)(C)C` [adefovir dipivoxil, 9-[2-[[bis[(pivaloyloxy)methoxy]-phosphinyl]-methoxy]ethyl]adenine], the “cumulative rate of resistance” value in the series with hepatitis B virus (HBeAg negative patients) is on record as approximately 29%; in the series with hepatitis B virus (HBeAg positive patients) it was “about 20%”. For the same compound, in series [1], the “adefovir-associated nephrotoxicity, patients” value is given as “up to 47%”.

Consider `Nc1ncnc2c1ncn2CCOCP(=O)(O)O` [adefovir], for which the 5-year resistance rate in the series on hepatitis B virus (5-year, monotherapy) is recorded as 20-30%. Besides, the “susceptibility of lamivudine-resistant mutants” value in series [2] is reported as “retain susceptibility; also recorded: remain susceptible”.
